Data from ChEMBL document CHEMBL5244275, “Geminal Diheteroatomic Motifs: Some Applications of Acetals, Ketals, and Their Sulfur and Nitrogen Homologues in Medicinal Chemistry and Drug Design” (J Med Chem, 2021).
Values after ≈ are worked out from the molar mass of the structure shown.

Assays:
[1] = Aqueous stability of the compound assessed as acid-catalyzed decomposition by measuring rate constant; assay type: physicochemical; details: buffer
[2] = Oral bioavailability in monkey; assay type: ADME, organism-based, Macaca mulatta; details: rhesus monkey, in vivo
[3] = Oral bioavailability in dog; assay type: ADME, organism-based, Canis lupus familiaris; details: in vivo
[4] = Oral bioavailability in rat; assay type: ADME, organism-based; details: in vivo
[5] = Oral bioavailability in human; assay type: ADME, organism-based; details: in vivo
Hepatitis C virus = assay: Antiviral activity against Hepatitis C virus genotype 1a harboring NS5A Y93H mutant; assay type: functional, organism-based, Hepacivirus hominis
[6] = Aqueous solubility of compound; assay type: physicochemical; details: aqueous (not further specified)
[7] = Stability of the compound at pH 8 assessed as compound hydrolysis by measuring half-life; assay type: physicochemical; details: buffer
[8] = molecular target: T1, Neutrophil elastase (Homo sapiens) (UniProt P08246); assay: Time-dependent inhibition of human leukocyte elastase assessed as observed binding constant
T1 sequence (whole entry): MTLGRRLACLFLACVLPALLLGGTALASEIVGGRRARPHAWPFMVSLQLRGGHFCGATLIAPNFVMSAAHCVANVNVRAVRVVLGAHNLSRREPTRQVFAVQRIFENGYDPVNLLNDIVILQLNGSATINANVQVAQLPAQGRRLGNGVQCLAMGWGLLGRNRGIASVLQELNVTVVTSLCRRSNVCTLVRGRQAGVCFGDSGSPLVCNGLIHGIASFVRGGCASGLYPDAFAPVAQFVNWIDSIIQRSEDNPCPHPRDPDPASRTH

[9] = Cmax in rat plasma at 20 mg/kg, po; assay type: ADME, organism-based; set-up: dose 20 mg/kg, route po
[10] = Inhibition of Leukotriene B4 production in human blood Polymorphonuclear neutrophil cells; assay type: functional, tissue-based
Candida albicans [11] = assay: Antifungal activity against Candida albicans GS; assay type: functional, organism-based
Candida albicans [12] = assay: Fungicidal activity against Candida albicans; assay type: functional
[13] = molecular target: Human immunodeficiency virus type 1 protease (Human immunodeficiency virus 1, UniProt Q72874); assay: Inhibition of HIV-1 protease
Escherichia coli = assay: Antibacterial activity against Escherichia coli 51A0150 assessed as inhibition of bacterial growth by microdilution method; assay type: functional
Pasteurella multocida = assay: Antibacterial activity against Pasteurella multocida 59A0067 assessed as inhibition of bacterial growth by microdilution method; assay type: functional
Staphylococcus aureus = assay: Antibacterial activity against Staphylococcus aureus 01A0785 assessed as inhibition of bacterial growth by microdilution method; assay type: functional
[14] = Stability of the compound in 20% aqueous dioxane solution at 30 degreeC assessed as compound hydrolysis by measuring rate constant; assay type: physicochemical; details: buffer
[15] = Stability of the compound at pH 7.4 aqueous phosphate buffer assessed as half-life; assay type: physicochemical
[16] = Stability of the compound assessed as acid hydrolysis by measuring half-life; assay type: physicochemical
Plasmodium falciparum = assay: Antiplasmodial activity against Plasmodium falciparum FcM29 assessed as inhibition of plasmodial growth; assay type: functional, organism-based
[17] = tested on: Human immunodeficiency virus 1; assay: microbe, parasite or virus in culture; details: Human immunodeficiency virus 1, LAV
[18] = Inhibition of Calcium channel (unknown origin); set-up: species or system Homo sapiens

Cc1ccc(C2OCCS2)cc1 (stereo unspecified)
K [1]: 0.146 min⁻¹

COC(=O)N[C@H](C(=O)N1CCC[C@H]1c1nc(-c2ccc3c(c2)O[C@@H](c2ccccc2)n2c-3cc3cc(-c4c[nH]c([C@@H]5CCCN5C(=O)[C@@H](NC(=O)OC)C(C)C)n4)ccc32)c[nH]1)C(C)C [ELBASVIR]
bioavailability [2]: 17% | bioavailability [3]: 35% | bioavailability [4]: 9% | bioavailability [5]: 32% | EC50 (Hepatitis C virus): 2.4 nM

CC(C)[C@H](N)C(=O)OCCOCn1cnc2c(=O)[nH]c(N)nc21 [VALACYCLOVIR]
solubility [6]: 174 mg/mL (≈ 536000 µM) | bioavailability [5]: 54%

COC(=O)N[C@H](C(=O)N1CCC[C@H]1c1ncc(-c2cc(F)c3c(c2)O[C@@H](c2cnc(C4CC4)s2)n2c-3cc3cc(-c4cnc([C@@H]5CCCN5C(=O)[C@@H](NC(=O)OC)C(C)C)[nH]4)ccc32)[nH]1)C(C)C [RUZASVIR]
EC50 (Hepatitis C virus): 0.06 nM

CC[C@@H]1C(=O)N(C(C)=O)[C@H]1OC(C)=O (racemic)
half-life [7]: 2.4 h | K [8]: 4 10^3/M/s

N#Cc1cc(-c2ccoc2)c2ccc(OCc3cccc(C4(O)CCOCC4)n3)cc2c1
Cmax [9]: 2000 nM | IC50 [10]: 0.6 nM | bioavailability [4]: 26%

CC[C@H](C)C[C@H](C)CCCCCCCCC(=O)N[C@H]1C[C@@H](O)[C@@H](OCCN)NC(=O)[C@@H]2[C@@H](O)CCN2C(=O)[C@H]([C@H](O)CC(N)=O)NC(=O)[C@H]([C@H](O)[C@@H](O)c2ccc(O)cc2)NC(=O)[C@@H]2C[C@@H](O)CN2C(=O)[C@H]([C@@H](C)O)NC1=O
IC50 (Candida albicans [11]): 10 nM | MFC (Candida albicans [12]): 0.25 µg/mL (≈ 0.226 µM)

COC(=O)N[C@H](C(=O)N1CCC[C@H]1c1ncc(-c2ccc3c(c2)CCn2c-3cc3cc(-c4cnc([C@@H]5CCCN5C(=O)[C@@H](NC(=O)OC)C(C)C)[nH]4)ccc32)[nH]1)C(C)C
EC50 (Hepatitis C virus): 170 nM

CC(C)(C)NC(=O)[C@@H]1C[C@@H]2CCCC[C@@H]2CN1C[C@@H](O)[C@H](Cc1ccccc1)NC(=O)O[C@H]1CC[C@H]2OCC[C@@H]12
IC50 [13]: 17 nM

CC(C)(C)NC(=O)[C@@H]1C[C@@H]2CCCC[C@@H]2CN1C[C@@H](O)[C@H](Cc1ccccc1)NC(=O)O[C@H]1CO[C@H]2CCC[C@H]21
IC50 [13]: 190 nM

C1CCC2(CC1)OOC1(O2)C2CC3CC(C2)CC1C3 (stereo unspecified)
solubility [6]: < 0.001 mg/mL | bioavailability [4]: < 1%

CC[C@@H]1C(=O)N(C(=O)NCc2ccccc2)[C@H]1Oc1ccc(C(=O)O)cc1
half-life [7]: > 80 h | K [8]: 2 10^3/M/s

CC[C@@H]1C[C@H](O)[C@@H](C)NC[C@H](C)C[C@@]2(C)OC3(CCN(C(=O)c4ccco4)CC3)O[C@@H]([C@H](C)[C@H]2O[C@@H]2O[C@H](C)C[C@H](N(C)C)[C@H]2O)[C@@H](C)C(=O)O1
MIC (Escherichia coli): 0.78 µg/mL (≈ 1.08 µM) | MIC (Pasteurella multocida): 0.05 µg/mL (≈ 0.0693 µM) | MIC (Staphylococcus aureus): 0.78 µg/mL (≈ 1.08 µM)

Cc1ccc(C2(c3ccc(C)cc3)OCCO2)cc1
K [14]: 1.7 10^-1/M/s

CC[C@@H]1C[C@H](O)[C@@H](C)NC[C@H](C)C[C@@]2(C)OC3(CCN(Cc4ccccc4)CC3)O[C@@H]([C@H](C)[C@H]2O[C@@H]2O[C@H](C)C[C@H](N(C)C)[C@H]2O)[C@@H](C)C(=O)O1
MIC (Escherichia coli): 0.2 µg/mL (≈ 0.279 µM) | MIC (Pasteurella multocida): 0.03 µg/mL (≈ 0.0418 µM) | MIC (Staphylococcus aureus): 0.6 µg/mL (≈ 0.836 µM)

CCCCC[C@H](O)/C=C/[C@H]1O[C@@H]2O[C@@H]([C@H]2F)[C@@H]1C/C=C\CCCC(=O)O
half-life [15]: 480 h

O=c1[nH]cnc2c1ncn2[C@@H]1O[C@H](CO)C[C@@H]1F
half-life [16]: > 1 min

CC1(C)COC2(CCC(N[C@H]3CC[C@H](Nc4ccnc5cc(Cl)ccc45)CC3)CC2)OO1 (stereo partly specified)
IC50 (Plasmodium falciparum): 10 nM

Nc1nc(=O)n([C@@H]2CS[C@H](CO)O2)cc1F [EMTRICITABINE]
EC50 [17]: 8 nM | bioavailability [5]: 60%

N#Cc1cc(-c2ccoc2)c2ccc(OCc3cccc(C4(O)CC5COC(C4)O5)c3)cc2c1 (stereo unspecified)
Cmax [9]: 2500 nM | IC50 [10]: 3 nM | bioavailability [4]: 10%

COC(=O)N[C@H](C(=O)N1CCC[C@H]1c1ncc(-c2ccc(-c3cc4cc(-c5cnc([C@@H]6CCCN6C(=O)[C@@H](NC(=O)OC)C(C)C)[nH]5)ccc4o3)cc2)[nH]1)C(C)C
EC50 (Hepatitis C virus): 27 nM

C[C@@H](O[C@H]1OCCN(Cc2n[nH]c(=O)[nH]2)[C@H]1c1ccc(F)cc1)c1cc(C(F)(F)F)cc(C(F)(F)F)c1 [APREPITANT]
IC50 [18]: > 1000 nM

c1ccc(C2(c3ccccc3)OCCO2)cc1
K [14]: 3.6 10^-2/M/s

Nc1ncnc2c1ncn2[C@@H]1O[C@H](CO)C[C@H]1F
half-life [16]: > 1 min

CC[C@H]1OC(=O)[C@H](C)[C@@H](O[C@H]2C[C@@](C)(OC)[C@@H](O)[C@H](C)O2)[C@H](C)[C@@H](O[C@@H]2O[C@H](C)C[C@H](N(C)C)[C@H]2O)[C@](C)(O)C[C@@H](C)CN(C)[C@H](C)[C@@H](O)[C@]1(C)O [AZITHROMYCIN]
MIC (Escherichia coli): 1.56 µg/mL (≈ 2.08 µM) | MIC (Pasteurella multocida): 0.1 µg/mL (≈ 0.134 µM) | MIC (Staphylococcus aureus): 0.2 µg/mL (≈ 0.267 µM)

COc1ccc(C2OCCS2)cc1 (stereo unspecified)
K [1]: 0.778 min⁻¹
